In ChEMBL document CHEMBL1201862, “PubChem BioAssay data set” (2004):
The source made the active and inactive calls.

What was measured:
Type in all cases: functional
[1] = biological target: Protein kinase C delta type (Homo sapiens, UniProt Q05655)
[2] = biological target: Serine/threonine-protein kinase N2 (Homo sapiens, UniProt Q16513)
[3] = biological target: Phosphorylase b kinase gamma catalytic chain, liver/testis isoform (Homo sapiens, UniProt P15735);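 further: PHKG2 measured as one member of a kinome-wide kinase panel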
[4] = biological target: Protein kinase C gamma type (Homo sapiens, UniProt P05129)
SRSF protein kinase 1 = SRSF protein kinase 1 (Homo sapiens, UniProt Q96SB4);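 further: measured as one member of a kinome-wide kinase profiling panel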
[5] = biological target: Death-associated protein kinase 3 (Homo sapiens, UniProt O43293);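 further: measured as one member of a kinome-wide profiling panel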
[6] = biological target: RAC-alpha serine/threonine-protein kinase (Homo sapiens, UniProt P31749);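 further: AKT1 affinity measured as one member of a kinome-wide kinase profiling panel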
[7] = biological target: Mitogen-activated protein kinase 13 (Homo sapiens, UniProt O15264)
Focal adhesion kinase 1 = Focal adhesion kinase 1 (Homo sapiens, UniProt Q05397);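 further: measured as one member of a kinome panel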
[8] = biological target: Ribosomal protein S6 kinase alpha-3 (Homo sapiens, UniProt P51812);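 further: measured within a kinome-wide profiling panel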
Aurora kinase B = Aurora kinase B (Homo sapiens, UniProt Q96GD4)
[9] = biological target: ALK tyrosine kinase receptor (Homo sapiens, UniProt Q9UM73);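 further: ALK tested as one member of a kinase panel screen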
[10] = biological target: MAP kinase-interacting serine/threonine-protein kinase 2 (Homo sapiens, UniProt Q9HBH9)
[11] = biological target: Interleukin-1 receptor-associated kinase 4 (Homo sapiens, UniProt Q9NWZ3)
[12] = biological target: Vascular endothelial growth factor receptor 2 (Homo sapiens, UniProt P35968)
[13] = biological target: Non-receptor tyrosine-protein kinase TYK2 (Homo sapiens, UniProt P29597)
[14] = biological target: Tyrosine-protein kinase Fyn (Homo sapiens, UniProt P06241)
[15] = biological target: Megakaryocyte-associated tyrosine-protein kinase (Homo sapiens, UniProt P42679);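 further: affinity measured as one member of a kinase panel (Navigating the Kinome) against MATK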
[16] = biological target: Rho-associated protein kinase 1 (Homo sapiens, UniProt Q13464);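 further: measured within a broad kinome-wide panel profiling many kinases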
[17] = biological target: Serine/threonine-protein kinase BRSK1 (Homo sapiens, UniProt Q8TDC3);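 further: measured within a kinome-wide kinase panel, with the target listed as KIAA1811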
[18] = biological target: Cell division cycle 7-related protein kinase (Homo sapiens, UniProt O00311);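 further: value obtained from a kinome-wide kinase panel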
[19] = biological target: Casein kinase I isoform delta (Homo sapiens, UniProt P48730);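 further: measured as one member (CSNK1D) of a kinome panel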
[20] = biological target: MAP kinase-activated protein kinase 2 (Homo sapiens, UniProt P49137);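 further: measured as one member of a kinome-wide kinase panel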
[21] = biological target: Calcium/calmodulin-dependent protein kinase type 1 (Homo sapiens, UniProt Q14012)
[22] = biological target: Lymphokine-activated killer T-cell-originated protein kinase (Homo sapiens, UniProt Q96KB5);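 further: value comes from a kinase panel screen in which TOPK was one of the panel members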
[23] = biological target: Maternal embryonic leucine zipper kinase (Homo sapiens, UniProt Q14680)
LIM domain kinase 1 = LIM domain kinase 1 (Homo sapiens, UniProt P53667); experiment: Navigating the Kinome. Panel member name: LIMK1
[24] = biological target: Mitogen-activated protein kinase kinase kinase kinase 5 (Homo sapiens, UniProt Q9Y4K4);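 further: measured as one member of a kinome-spanning kinase panel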
[25] = biological target: Glycogen synthase kinase-3 alpha (Homo sapiens, UniProt P49840);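 further: GSK3A result taken from a broad kinome-wide kinase panel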
[26] = biological target: MAP/microtubule affinity-regulating kinase 3 (Homo sapiens, UniProt P27448);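 further: MARK3 affinity measured as one member of a kinome panel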
[27] = biological target: Tyrosine-protein kinase receptor UFO (Homo sapiens, UniProt P30530)
[28] = biological target: Serine/threonine-protein kinase PLK4 (Homo sapiens, UniProt O00444);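 further: PLK4 measured as one member of a kinome-wide kinase profiling panel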
[29] = biological target: Casein kinase I isoform alpha (Homo sapiens, UniProt P48729)
Casein kinase I isoform alpha, sequence (P48729 whole entry, canonical isoform): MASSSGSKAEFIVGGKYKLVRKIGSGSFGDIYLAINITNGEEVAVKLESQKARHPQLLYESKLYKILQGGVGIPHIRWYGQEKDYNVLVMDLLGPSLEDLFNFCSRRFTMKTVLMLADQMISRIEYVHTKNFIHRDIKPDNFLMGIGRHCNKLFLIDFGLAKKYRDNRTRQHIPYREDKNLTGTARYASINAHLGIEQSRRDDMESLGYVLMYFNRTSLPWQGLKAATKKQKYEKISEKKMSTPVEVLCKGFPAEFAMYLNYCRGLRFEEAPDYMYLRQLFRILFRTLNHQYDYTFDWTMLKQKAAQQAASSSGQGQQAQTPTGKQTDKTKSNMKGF

[30] = biological target: Receptor tyrosine-protein kinase erbB-2 (Homo sapiens, UniProt P04626); experiment: Navigating the Kinome. Panel member name: ERBB2
[31] = biological target: Mitogen-activated protein kinase 9 (Homo sapiens, UniProt P45984);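 further: value from a kinome panel profiling assay, MAPK9 panel entry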
[32] = biological target: Serine/threonine-protein kinase 3 (Homo sapiens, UniProt Q13188);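 further: measured as one member of a kinome-wide kinase panel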
[33] = biological target: Serine/threonine-protein kinase PAK 4 (Homo sapiens, UniProt O96013);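 further: value obtained within a kinome profiling panel in which PAK4 was one of the panel members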
[34] = biological target: Vascular endothelial growth factor receptor 3 (Homo sapiens, UniProt P35916);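 further: value from a kinome-wide profiling panel, with FLT4 as the panel member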
[35] = biological target: Ribosomal protein S6 kinase alpha-5 (Homo sapiens, UniProt O75582)
Ribosomal protein S6 kinase alpha-5, sequence (O75582 whole entry): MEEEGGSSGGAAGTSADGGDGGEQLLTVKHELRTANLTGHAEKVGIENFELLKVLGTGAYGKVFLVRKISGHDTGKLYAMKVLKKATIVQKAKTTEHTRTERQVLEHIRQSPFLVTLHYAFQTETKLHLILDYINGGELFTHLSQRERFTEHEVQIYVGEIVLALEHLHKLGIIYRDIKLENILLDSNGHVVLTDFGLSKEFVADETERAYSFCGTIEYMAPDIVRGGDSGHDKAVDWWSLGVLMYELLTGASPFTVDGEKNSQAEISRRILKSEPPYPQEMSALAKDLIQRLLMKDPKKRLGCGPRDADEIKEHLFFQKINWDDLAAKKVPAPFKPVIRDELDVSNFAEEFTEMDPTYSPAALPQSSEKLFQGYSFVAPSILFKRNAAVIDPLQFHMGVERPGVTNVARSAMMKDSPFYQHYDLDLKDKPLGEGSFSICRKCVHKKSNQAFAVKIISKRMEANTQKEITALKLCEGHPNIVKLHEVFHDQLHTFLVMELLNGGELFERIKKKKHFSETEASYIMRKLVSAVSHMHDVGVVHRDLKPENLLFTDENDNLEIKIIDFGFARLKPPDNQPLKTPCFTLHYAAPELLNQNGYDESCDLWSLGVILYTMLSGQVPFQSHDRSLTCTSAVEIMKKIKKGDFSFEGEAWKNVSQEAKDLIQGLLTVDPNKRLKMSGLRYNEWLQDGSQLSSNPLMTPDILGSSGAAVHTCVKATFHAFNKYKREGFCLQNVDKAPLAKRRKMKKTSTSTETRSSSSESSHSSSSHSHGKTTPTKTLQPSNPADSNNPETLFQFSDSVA

[36] = biological target: Dual specificity tyrosine-phosphorylation-regulated kinase 1A (Homo sapiens, UniProt Q13627);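 further: measured against DYRK1A as one member of a broad kinome profiling panel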
[37] = biological target: Serine/threonine-protein kinase MRCK alpha (Homo sapiens, UniProt Q5VT25)
Serine/threonine-protein kinase MRCK alpha, sequence (Q5VT25 whole entry): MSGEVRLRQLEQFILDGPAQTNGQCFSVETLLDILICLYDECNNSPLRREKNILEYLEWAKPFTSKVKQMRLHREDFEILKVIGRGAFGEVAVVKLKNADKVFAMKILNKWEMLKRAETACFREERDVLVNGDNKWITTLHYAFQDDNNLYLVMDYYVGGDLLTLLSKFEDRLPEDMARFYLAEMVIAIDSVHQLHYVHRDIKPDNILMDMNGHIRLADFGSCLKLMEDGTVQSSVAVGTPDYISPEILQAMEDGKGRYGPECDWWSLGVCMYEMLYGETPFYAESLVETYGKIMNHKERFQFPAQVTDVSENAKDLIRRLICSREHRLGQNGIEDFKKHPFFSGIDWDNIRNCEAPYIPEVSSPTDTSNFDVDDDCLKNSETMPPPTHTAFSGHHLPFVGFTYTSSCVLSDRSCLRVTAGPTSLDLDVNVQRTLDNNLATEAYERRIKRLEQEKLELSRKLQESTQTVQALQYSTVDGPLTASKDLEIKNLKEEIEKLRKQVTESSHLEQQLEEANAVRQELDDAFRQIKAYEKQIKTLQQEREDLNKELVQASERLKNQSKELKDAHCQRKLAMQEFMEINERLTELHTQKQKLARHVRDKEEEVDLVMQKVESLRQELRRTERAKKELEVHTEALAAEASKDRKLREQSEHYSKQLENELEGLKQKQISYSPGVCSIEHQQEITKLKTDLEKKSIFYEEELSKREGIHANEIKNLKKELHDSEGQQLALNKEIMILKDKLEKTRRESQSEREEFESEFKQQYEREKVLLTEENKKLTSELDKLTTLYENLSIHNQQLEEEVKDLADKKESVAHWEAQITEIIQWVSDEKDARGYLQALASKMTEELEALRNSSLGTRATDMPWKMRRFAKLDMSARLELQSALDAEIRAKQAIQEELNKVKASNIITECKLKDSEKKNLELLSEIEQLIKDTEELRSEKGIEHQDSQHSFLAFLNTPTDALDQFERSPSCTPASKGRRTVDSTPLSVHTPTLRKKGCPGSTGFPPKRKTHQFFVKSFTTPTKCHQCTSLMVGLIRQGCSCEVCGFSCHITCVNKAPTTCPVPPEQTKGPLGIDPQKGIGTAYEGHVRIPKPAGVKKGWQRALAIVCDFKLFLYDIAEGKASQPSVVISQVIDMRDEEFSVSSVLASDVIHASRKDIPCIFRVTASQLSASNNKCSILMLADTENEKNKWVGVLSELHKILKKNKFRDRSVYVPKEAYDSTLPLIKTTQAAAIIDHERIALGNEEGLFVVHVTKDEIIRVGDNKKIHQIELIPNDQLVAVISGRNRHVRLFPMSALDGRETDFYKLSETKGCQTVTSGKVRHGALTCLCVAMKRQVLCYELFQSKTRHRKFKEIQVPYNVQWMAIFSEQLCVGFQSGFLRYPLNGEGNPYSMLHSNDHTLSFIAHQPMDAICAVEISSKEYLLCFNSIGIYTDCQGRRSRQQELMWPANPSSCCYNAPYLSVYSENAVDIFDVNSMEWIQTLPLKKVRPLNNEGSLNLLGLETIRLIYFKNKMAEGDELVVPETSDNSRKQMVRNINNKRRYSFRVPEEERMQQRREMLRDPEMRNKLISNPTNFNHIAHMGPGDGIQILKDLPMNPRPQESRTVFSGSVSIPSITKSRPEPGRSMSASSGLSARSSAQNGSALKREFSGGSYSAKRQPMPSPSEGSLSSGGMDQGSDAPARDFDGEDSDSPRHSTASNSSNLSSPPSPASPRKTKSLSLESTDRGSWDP

Misshapen-like kinase 1 = Misshapen-like kinase 1 (Homo sapiens, UniProt Q8N4C8);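 further: kinome panel screen with MINK as the panel member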
[38] = biological target: Dual specificity protein kinase CLK2 (Homo sapiens, UniProt P49760)
[39] = biological target: Tyrosine-protein kinase JAK2 (Homo sapiens, UniProt O60674);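 further: JAK2 tested as one member of a kinase panel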
[40] = biological target: Calcium/calmodulin-dependent protein kinase type II subunit delta (Homo sapiens, UniProt Q13557)
[41] = biological target: cAMP-dependent protein kinase catalytic subunit alpha (Homo sapiens, UniProt P17612)
[42] = biological target: High affinity nerve growth factor receptor (Homo sapiens, UniProt P04629);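 further: NTRK1 tested as one member of a kinome-wide profiling panel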
High affinity nerve growth factor receptor, sequence (P04629 whole entry): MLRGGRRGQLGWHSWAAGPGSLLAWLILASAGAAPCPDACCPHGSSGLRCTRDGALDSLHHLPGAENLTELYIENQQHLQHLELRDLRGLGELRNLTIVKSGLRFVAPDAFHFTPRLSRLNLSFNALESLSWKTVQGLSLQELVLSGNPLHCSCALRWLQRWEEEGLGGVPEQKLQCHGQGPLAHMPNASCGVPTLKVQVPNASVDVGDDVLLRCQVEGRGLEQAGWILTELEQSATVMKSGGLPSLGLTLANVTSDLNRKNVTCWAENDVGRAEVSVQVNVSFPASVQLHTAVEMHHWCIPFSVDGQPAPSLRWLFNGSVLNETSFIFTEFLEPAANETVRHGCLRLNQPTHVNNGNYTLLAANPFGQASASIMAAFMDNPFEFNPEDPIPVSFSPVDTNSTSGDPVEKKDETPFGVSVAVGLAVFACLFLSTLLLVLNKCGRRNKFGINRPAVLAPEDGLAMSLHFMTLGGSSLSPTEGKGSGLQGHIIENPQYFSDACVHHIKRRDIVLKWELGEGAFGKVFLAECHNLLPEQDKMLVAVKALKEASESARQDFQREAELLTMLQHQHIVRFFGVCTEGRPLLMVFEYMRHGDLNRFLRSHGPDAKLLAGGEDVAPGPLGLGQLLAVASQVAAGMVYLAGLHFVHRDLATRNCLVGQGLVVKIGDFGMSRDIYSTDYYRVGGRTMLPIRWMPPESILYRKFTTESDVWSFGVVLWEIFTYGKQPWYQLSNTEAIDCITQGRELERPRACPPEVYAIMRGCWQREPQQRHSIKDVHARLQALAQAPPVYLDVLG

Protein kinase C delta type, sequence (Q05655 whole entry): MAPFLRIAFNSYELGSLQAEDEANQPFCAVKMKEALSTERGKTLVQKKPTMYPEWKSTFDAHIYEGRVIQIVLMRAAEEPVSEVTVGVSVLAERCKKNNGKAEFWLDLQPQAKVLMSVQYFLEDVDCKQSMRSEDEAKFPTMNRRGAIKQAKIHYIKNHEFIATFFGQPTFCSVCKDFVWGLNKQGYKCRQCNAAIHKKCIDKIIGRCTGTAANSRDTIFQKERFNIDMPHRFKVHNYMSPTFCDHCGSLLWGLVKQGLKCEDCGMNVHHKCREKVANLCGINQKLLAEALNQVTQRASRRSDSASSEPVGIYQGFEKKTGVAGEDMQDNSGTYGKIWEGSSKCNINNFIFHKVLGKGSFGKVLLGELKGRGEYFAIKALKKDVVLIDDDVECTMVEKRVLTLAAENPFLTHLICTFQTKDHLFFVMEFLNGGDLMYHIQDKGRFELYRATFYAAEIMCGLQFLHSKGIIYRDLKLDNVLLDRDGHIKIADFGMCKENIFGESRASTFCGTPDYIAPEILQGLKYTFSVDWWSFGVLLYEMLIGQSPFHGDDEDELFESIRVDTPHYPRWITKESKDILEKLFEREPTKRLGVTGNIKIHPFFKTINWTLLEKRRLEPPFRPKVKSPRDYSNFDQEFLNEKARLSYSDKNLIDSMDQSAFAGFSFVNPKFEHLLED

`NC(=O)Cn1cc(-c2cc(-c3cc4ccccc4s3)c3[nH]ncc3c2)c2nc(N)ncc21` was tested, and the Ki [1] was 5010 nM (active), the Ki [2] was 79.4 nM (active) and the Ki [3] was 3160 nM (active). For the same molecule, the Ki [4] was 1580 nM (active), the Ki (SRSF protein kinase 1) was 2000 nM (active) and the Ki [5] was 1000 nM (active). For the same molecule, the Ki [6] was > 7940 nM (inactive), the Ki [7] was 794 nM (active) and the Ki (Focal adhesion kinase 1) was > 1580 nM (inactive). For the same molecule, the Ki [8] was 5010 nM (active), the Ki (Aurora kinase B) was 3980 nM (active) and the Ki [9] was > 1260 nM (inactive). For the same molecule, the Ki [10] was 100 nM (active), the Ki [11] was > 10000 nM (inactive) and the Ki [12] was 1260 nM (active). For the same molecule, the Ki [13] was > 2000 nM (inactive), the Ki [14] was > 794 nM (inactive) and the Ki [15] was > 2000 nM (inactive). For the same molecule, the Ki [16] was 1580 nM (active), the Ki [17] was 2000 nM (active) and the Ki [18] was 126 nM (active). The Ki [19] was 3160 nM (active), the Ki [20] was 25.1 nM (active) and the Ki [21] was > 5010 nM (inactive). The Ki [22] was > 10000 nM (inactive), the Ki [23] was > 1580 nM (inactive) and the Ki (LIM domain kinase 1) was 3980 nM (active). For the same molecule, the Ki [24] was 631 nM (active), the Ki [25] was 50.1 nM (active) and the Ki [26] was 398 nM (active). For the same molecule, the Ki [27] was > 2000 nM (inactive), the Ki [28] was 200 nM (active) and the Ki [29] was > 6310 nM (inactive). The Ki [30] was 1000 nM (active), the Ki [31] was 1260 nM (active) and the Ki [32] was 2510 nM (active). The Ki [33] was > 5010 nM (inactive), the Ki [34] was 2510 nM (active) and the Ki [35] was > 2000 nM (inactive). For the same molecule, the Ki [36] was 100 nM (active), the Ki [37] was 3980 nM (active) and the Ki (Misshapen-like kinase 1) was 501 nM (active). The Ki [38] was 1000 nM (active), the Ki [39] was > 1580 nM (inactive) and the Ki [40] was 3160 nM (active). For the same molecule, the Ki [41] was 631 nM (active) and the Ki [42] was > 2510 nM (inactive).
